Like-named read-outs stand apart in the source and are kept apart here.
Experiments:
[1] = test system: LNcap cells; experiment: Inhibitory effect on proliferation of LNcap cells (CCK-8, 72 h); assay type: cell-based; conditions: Homo sapiens, LNcap cells, CCK-8, read-out: LNcap cells IC50
Description: A dish of LNcap cells (human prostate cancer cells with PTEN deficiency) growing at log phase and in good conditions were taken and digested for 3 min by using 1 mL of pancreatin, then the mixture was added with 4 mL of complete culture medium to terminate digestion, and the cells were added to a centrifuge tube. 20 μL of cells were taken and counted, the required number of cells (mL) was pipetted and centrifuged at 1200 rpm for 5 min, the supernatant was discarded, and an appropriate amount of plating medium (RPMI medium+5% FBS+1% sodium pyruvate+1% glutamine) was added to adjust the cell density to 3×10^4 cells/mL. The cells were seeded on a 96-well plate at 100 μL/well using a multi-channel pipette and cultured in a cell incubator at 37° C., 5% CO2 and saturated humidity. After incubation overnight, compounds were loaded using a nanoliter pipettor, 2 duplicate wells were set for each concentration, and cells without compound were used as negative controls. After 72 h, CCK-8 was added at 10 μL/well for incubation for 4 h, then absorbance was measured at 450 nm with an Envision plate reader, and inhibition rate was calculated. Inhibition rate (%)=(mean value of negative control group−mean value of experimental group)/(mean value of negative control group−mean value of blank group)×100%. A dose-response curve was fitted by four-parameter analysis, with the logarithm of compound concentration as abscissa and inhibition rate as ordinate, so that IC50 was calculated.

[2] = Pharmacokinetic evaluation in mice; assay type: in vivo; parameters: Cl: unit not given here; conditions: ICR mice; for AUC(0-inf) / AUC(0-t) / Cmax / Tmax / bioavailability / MRT last / Vd: mouse, plasma; for bioavailability: IG 10 mg/kg vs IV 1 mg/kg, read-out: Absolute bioavailability F %; for MRT last: read-out: MRT(0-t)
Description: ICR mice, weight 18-22 g, after adaption for 3-5 days, were randomly divided into 4 groups of 9 mice, each group was intragastrically (IG) administered with compound 28 or compound 30 at a dose of 10 mg/kg, or intravenously (IV) administered with compound 28 or compound 30 at a dose of 1 mg/kg.
The animals to be tested (ICR mice) were fasted for 12 h before administration and food was provided 4 h after administration, and water was freely drunk before and after the experiment and during the experiment.
After intragastric administration, about 0.1 mL of blood was taken from eye sockets at 15 min, 30 min, 1 h, 2 h, 3 h, 4 h, 6 h, 8 h, 10 h, and 24 h; after intravenous injection, about 0.1 mL of blood was taken from eye sockets at 5 min, 10 min, 30 min, 1 h, 2 h, 4 h, 6 h, 8 h, 10 h, and 24 h; each mouse was collected at 3-4 time points and 3 mice were collected at each time point, whole blood was collected, placed in centrifuge tubes containing EDTA-K2, and stored at 4° C. within 1 h, and the plasma was separated off by centrifugation at 4° C. and 4000 rpm for 10 min. All the plasma samples were collected and immediately stored at −20° C. for testing. 30 μL of the plasma sample to be tested and a standard curve sample were pipetted and added with 300 μL of acetonitrile solution containing an internal standard (20 ng/mL diazepam), shaken and mixed well for 5 min, and centrifuged at 13,000 rpm for 10 min. 80 μL of supernatant was taken and diluted with 80 μL of ultrapure water. After being mixed well, 2 μL of the resulting sample was taken for liquid chromatography-mass determination, and a chromatogram was recorded.
Oral and intravenous exposure of the compound of the present application was evaluated by in vivo pharmacokinetic experiment in mice.

[3] = target: T1, AKT1 (S473) (Homo sapiens, UniProt P31749); experiment: Inhibitory effect on phosphorylation of LNcap cells AKT1 (S473); assay type: cell-based; conditions: 1 h incubation
T1 construct: endogenous in cells; host or cells: LNcap cells
Description: LNcap cells AKT1 (S473) growing at log phase were taken, digested with 1 mL of pancreatin for 3 min, and added with 4 mL of complete medium to terminate digestion. The cells were added to a centrifuge tube. 20 μL of cells were taken and counted, the required number of cells (mL) was taken and centrifuged at 1200 rpm for 5 min, and a plating medium (2% FBS+phenol-free red 1640 base medium+1% sodium pyruvate+1% glutamine) was added to adjust the cell density to about 1×10E6 cells/mL. The cells were plated (96 wells) at the above cell density (100 μL/well), and cultured in a cell incubator at 37° C., 5% CO2 overnight; the next day, according to the plate distribution, the corresponding compound was sprayed using a nanoliter pipettor and incubated for 1 h at 37° C. in a cell incubator containing 5% CO2; the supernatant was discarded, and the plate was added with 40 μL of lysis buffer (1×) containing blocking buffer and incubated by shaking at room temperature for 30 min. After the mixture was mixed, 16 μL of lysate was transferred to another 384-well small-volume white plate. The plate was added with 4 μL of pre-mixed antibody (v/v) in assay buffer, covered, centrifuged to mix well, and incubated overnight at room temperature. The 665 nm/620 nm signal value was detected using a PE Envision multi-functional microplate reader, and IC50 was calculated by four-parameter fitting.

T1 sequence (P31749 whole entry): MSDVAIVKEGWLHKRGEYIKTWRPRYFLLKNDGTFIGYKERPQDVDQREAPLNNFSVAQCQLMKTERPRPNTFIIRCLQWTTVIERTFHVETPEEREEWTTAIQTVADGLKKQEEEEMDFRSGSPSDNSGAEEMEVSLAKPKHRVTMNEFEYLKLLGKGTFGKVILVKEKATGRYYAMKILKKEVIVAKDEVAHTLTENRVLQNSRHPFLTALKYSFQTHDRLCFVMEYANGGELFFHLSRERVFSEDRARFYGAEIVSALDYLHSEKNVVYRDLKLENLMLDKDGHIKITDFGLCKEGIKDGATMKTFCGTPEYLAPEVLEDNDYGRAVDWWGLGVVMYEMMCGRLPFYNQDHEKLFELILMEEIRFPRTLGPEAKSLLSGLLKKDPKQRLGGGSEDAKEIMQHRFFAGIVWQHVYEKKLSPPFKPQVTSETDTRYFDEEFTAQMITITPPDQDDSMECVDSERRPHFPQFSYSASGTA

IC50 [1] | t1/2z ([2]; IG 10 mg/kg) | Cl ([2]; IV 1 mg/kg) | t1/2z ([2]; IV 1 mg/kg) | AUC(0-inf) ([2]; po, IG 10 mg/kg) | AUC(0-t) ([2]; po, IG 10 mg/kg) | Cmax ([2]; po, IG 10 mg/kg) | Tmax ([2]; po, IG 10 mg/kg) | bioavailability ([2]; po) | MRT last ([2]; po, IG 10 mg/kg) | AUC(0-inf) ([2]; IV 1 mg/kg) | AUC(0-t) ([2]; IV 1 mg/kg) | Vd ([2]; IV 1 mg/kg) | MRT last ([2]; IV 1 mg/kg) | IC50 [3] | SMILES
1.7 nM | 3.61 h | 0.206 | 1.34 h | 25100 ng·h/mL | 25000 ng·h/mL | 4960 ng/mL | 2 h | 51.7% | 3.58 h | 4840 ng·h/mL | 4840 ng·h/mL | 0.398 L/kg | 0.817 h | 12 nM | CC(=O)N1CC2(CCN(c3cccc(-c4ccc5nc(-c6cccnc6N)n(-c6ccc(C7(N)CCC7)cc6)c5n4)c3F)CC2)C1 [Compound 44]
1.7 nM | 2.06 h | 0.23 | 1.159 h | 14500 ng·h/mL | 14500 ng·h/mL | 4020 ng/mL | 0.25 h | 34.3% | 3.95 h | 4340 ng·h/mL | 4240 ng·h/mL | 5.42 L/kg | 1.18 h | 7.7 nM | CN1CC2(CCN(c3cccc(-c4ccc5nc(-c6cccnc6N)n(-c6ccc(C7(N)CCC7)cc6)c5n4)c3F)CC2)CC1=O [Compound 45]
